Data set [1] in a line: Stability testing in solution, 7 days at 40° C. (% remaining peptide, HPLC-UV). In kind it is physicochemical. The procedure: After that time course, the sample was centrifuged for 20 min at 4500 rpm and 0.2 μL of the supernatant were analysed with HPLC-UV.
For determination of the amount of the remaining peptide, the peak areas of the target compound at t0 and t7 were compared, resulting in “% remaining peptide”, following the equation % remaining peptide=[(peak area peptide t7)×100]/peak area peptide t0.
The stability is expressed as “% remaining peptide”.

Data set [2] can be described thus: Solubility testing of exendin-4 derivatives (HPLC-UV of supernatant). The format is physicochemical. The procedure: Prior to the testing of solubility and stability of a peptide batch, its purity (HPLC-UV) was determined. […] Therefore, solutions from solid samples were prepared in different buffer systems with a concentration of 10 mg/mL compound based on the previously determined % purity. HPLC-UV was performed after 2 h of gentle agitation from the supernatant, which was obtained by 20 min of centrifugation at 4500 rpm. […] This analysis also served as starting point (t0) for the stability testing.

The target in data set [3] is T1, human glucagon receptor (Homo sapiens, UniProt P47871).
T1 construct: expressed in transfected cells; host or cells: HEK-293
Nature of the data set: cAMP response of HEK-293 cells stably expressing human glucagon receptor (HTRF). The format is cell-based. The note with it: Table 6; cAMP formation; read-out: EC50 hGlucagon-R. The procedure:
(§1) cAMP content of cells was determined using a kit from Cisbio Corp. (cat. no. 62AM4PEC) based on HTRF (Homogenous Time Resolved Fluorescence). For preparation, cells were split into T175 culture flasks and grown overnight to near confluency in medium (DMEM/10% FBS). Medium was then removed and cells washed with PBS lacking calcium and magnesium, followed by proteinase treatment with accutase (Sigma-Aldrich cat. no. A6964). Detached cells were washed and resuspended in assay buffer (1×HBSS; 20 mM HEPES, 0.1% BSA, 2 mM IBMX) and cellular density determined. They were then diluted to 400000 cells/ml and 25 μl-aliquots dispensed into the wells of 96-well plates. For measurement, 25 μl of test compound in assay buffer was added to the wells, followed by incubation for 30 minutes at room temperature.
(§2) Potencies of peptidic compounds at the GLP-1, glucagon and GIP receptors were determined by exposing cells expressing human glucagon receptor (hGCG R), human GIP (hGIP R) and human GLP-1 receptor (hGLP-1 R) to the listed compounds at increasing concentrations and measuring the formed cAMP as described in Methods.
For orientation: Time-resolved FRET reads energy transfer from a long-lived donor to a nearby acceptor.

In data set [4] the target is T2, human GLP-1 receptor (Homo sapiens, UniProt P43220).
T2 construct: expressed in transfected cells; host or cells: HEK-293
Nature of the data set: cAMP response of HEK-293 cells stably expressing human GLP-1 receptor (HTRF). As to conditions: Table 6; cAMP formation; read-out: EC50 hGLP-1R. In kind it is cell-based. The procedure: as §1, §2

The target of data set [5] is T3, human GIP receptor (Homo sapiens, UniProt P48546).
T3 construct: expressed in transfected cells; host or cells: HEK-293
T3 sequence (P48546 22-466): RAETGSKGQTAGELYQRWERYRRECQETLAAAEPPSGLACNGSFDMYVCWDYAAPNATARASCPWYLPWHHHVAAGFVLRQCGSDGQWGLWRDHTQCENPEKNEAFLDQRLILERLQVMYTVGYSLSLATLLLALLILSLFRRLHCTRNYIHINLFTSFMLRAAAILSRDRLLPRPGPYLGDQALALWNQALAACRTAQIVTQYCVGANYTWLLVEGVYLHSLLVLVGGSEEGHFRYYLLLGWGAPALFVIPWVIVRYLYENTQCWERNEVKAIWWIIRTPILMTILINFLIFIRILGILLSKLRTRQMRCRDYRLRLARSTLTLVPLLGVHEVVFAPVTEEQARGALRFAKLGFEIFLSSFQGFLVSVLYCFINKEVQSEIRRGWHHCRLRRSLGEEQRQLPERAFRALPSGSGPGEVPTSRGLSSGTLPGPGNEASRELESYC
The data set can be described thus: cAMP response of HEK-293 cells stably expressing human GIP receptor (HTRF). The format is cell-based. The note with it: Table 6; cAMP formation; read-out: EC50 hGIP-R. The procedure:
as §1, §2

Where two headings read alike, the source gives them in different places.

T2 sequence (P43220 24-463): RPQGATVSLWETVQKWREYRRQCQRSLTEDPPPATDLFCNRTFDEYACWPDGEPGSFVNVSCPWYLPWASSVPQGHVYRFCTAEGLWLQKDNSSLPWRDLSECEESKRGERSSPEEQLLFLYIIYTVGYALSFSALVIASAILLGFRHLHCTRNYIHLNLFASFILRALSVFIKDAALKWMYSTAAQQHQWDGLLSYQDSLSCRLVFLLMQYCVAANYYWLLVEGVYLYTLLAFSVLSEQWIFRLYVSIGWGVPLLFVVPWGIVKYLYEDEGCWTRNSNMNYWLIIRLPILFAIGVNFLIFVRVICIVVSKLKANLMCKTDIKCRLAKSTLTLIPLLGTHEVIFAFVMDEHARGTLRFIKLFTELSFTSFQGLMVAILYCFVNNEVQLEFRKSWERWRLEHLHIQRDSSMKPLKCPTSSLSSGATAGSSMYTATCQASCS
T1 sequence (P47871 26-477): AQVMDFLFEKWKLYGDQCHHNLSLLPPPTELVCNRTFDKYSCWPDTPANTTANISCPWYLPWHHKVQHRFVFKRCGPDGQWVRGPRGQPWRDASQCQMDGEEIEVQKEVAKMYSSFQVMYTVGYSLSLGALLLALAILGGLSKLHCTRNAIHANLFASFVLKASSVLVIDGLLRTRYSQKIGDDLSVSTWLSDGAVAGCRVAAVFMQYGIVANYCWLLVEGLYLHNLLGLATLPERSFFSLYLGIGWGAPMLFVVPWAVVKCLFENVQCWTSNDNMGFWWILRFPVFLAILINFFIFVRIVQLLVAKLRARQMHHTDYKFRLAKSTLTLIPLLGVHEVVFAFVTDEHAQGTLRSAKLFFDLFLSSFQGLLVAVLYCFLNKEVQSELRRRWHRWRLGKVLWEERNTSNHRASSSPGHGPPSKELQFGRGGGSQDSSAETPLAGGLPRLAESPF

Usually solubility stands for the dissolved amount per volume that the medium holds. In the case of `CCCCCCCCCCCCCCCCCC(=O)N[C@@H](CCC(=O)NCCCC[C@H](NC(=O)[C@H](CCC(N)=O)NC(=O)[C@H](CCCCN)NC(=O)[C@H](CO)NC(=O)[C@H](CC(C)C)NC(=O)[C@H](CC(=O)O)NC(=O)[C@H](CO)NC(=O)[C@@H](NC(=O)[C@H](Cc1ccccc1)NC(=O)[C@@H](NC(=O)CNC(=O)[C@H](Cc1c[nH]cn1)NC(=O)[C@H](CO)NC(=O)[C@@H](N)Cc1c[nH]cn1)[C@@H](C)O)[C@@H](C)O)C(=O)N[C@@H](CCC(=O)O)C(=O)N[C@@H](CCC(=O)O)C(=O)N[C@@H](CCC(=O)O)C(=O)N[C@@H](C)C(=O)N[C@H](C(=O)N[C@@H](CCCNC(=N)N)C(=O)N[C@@H](CC(C)C)C(=O)N[C@@H](Cc1ccccc1)C(=O)N[C@H](C(=O)N[C@@H](CCC(=O)O)C(=O)N[C@@H](Cc1c[nH]c2ccccc12)C(=O)N[C@@H](CC(C)C)C(=O)N[C@@H](CCCCN)C(=O)N[C@@H](C)C(=O)NCC(=O)NCC(=O)N1CCC[C@H]1C(=O)N[C@@H](CO)C(=O)N[C@@H](CO)C(=O)NCC(=O)N[C@@H](C)C(=O)N1CCC[C@H]1C(=O)N1CCC[C@H]1C(=O)N1CCC[C@H]1C(=O)N[C@@H](CO)C(N)=O)[C@@H](C)CC)C(C)C)C(=O)O` [compound 10], the “Stability (pH 4.5), % remaining peptide” value in data set [1] (pH 4.5, 7 days at 40° C. in solution) is listed as 92.7%. Moreover, the “Stability (pH 7.4), % remaining peptide” value in data set [1] (pH 7.4, 7 days at 40° C. in solution) worked out at 93.4%. For the same compound, the solubility at 2 h in data set [2] (pH 4.5, target concentration 10 mg/ml, 2 h agitation, read-out: Solubility (pH 4.5)) was above 5000 µg/mL; in data set [2] (pH 7.4, target concentration 10 mg/ml, 2 h agitation, read-out: Solubility (pH 7.4)), above 5000 µg/mL.
A word on the EC50: it is the midpoint of the concentration-response curve. For the compound `CCCCCCCCCCCCCCCC(=O)N[C@@H](CCC(=O)NCCCC[C@H](NC(=O)[C@H](CCC(N)=O)NC(=O)[C@H](CCCCN)NC(=O)[C@H](CO)NC(=O)[C@H](CC(C)C)NC(=O)[C@H](CC(=O)O)NC(=O)[C@H](CO)NC(=O)[C@@H](NC(=O)[C@H](Cc1ccccc1)NC(=O)[C@@H](NC(=O)CNC(=O)[C@H](Cc1c[nH]cn1)NC(=O)[C@@H](CO)NC(=O)[C@@H](N)Cc1c[nH]cn1)[C@@H](C)O)[C@@H](C)O)C(=O)N[C@@H](CCC(=O)O)C(=O)N[C@@H](CCC(=O)O)C(=O)N[C@@H](CCC(=O)O)C(=O)N[C@@H](C)C(=O)N[C@H](C(=O)N[C@@H](CCCNC(=N)N)C(=O)N[C@@H](CC(C)C)C(=O)N[C@@H](Cc1ccccc1)C(=O)N[C@H](C(=O)N[C@@H](CCC(=O)O)C(=O)N[C@@H](Cc1c[nH]c2ccccc12)C(=O)N[C@@H](CC(C)C)C(=O)N[C@@H](CCCCN)C(=O)N[C@@H](C)C(=O)NCC(=O)NCC(=O)N1CCC[C@H]1C(=O)N[C@@H](CO)C(=O)N[C@@H](CO)C(=O)NCC(=O)N[C@@H](C)C(=O)N1CCC[C@H]1C(=O)N1CCC[C@H]1C(=O)N1CCC[C@H]1C(=O)N[C@@H](CO)C(N)=O)[C@@H](C)CC)C(C)C)C(=O)O` [compound 14], the concentration giving a half-maximal response (EC50) in data set [3] was determined as 0.0584 nM; in data set [4], 0.0041 nM; in data set [5] it was 0.437 nM.
In the case of `CCCCCCCCCCCCCCCC(=O)N[C@@H](CCC(=O)N[C@@H](CCC(=O)NCCCC[C@H](NC(=O)[C@H](CCC(N)=O)NC(=O)[C@H](CCCCN)NC(=O)[C@H](CO)NC(=O)[C@H](CC(C)C)NC(=O)[C@H](CC(=O)O)NC(=O)[C@H](CO)NC(=O)[C@@H](NC(=O)[C@H](Cc1ccccc1)NC(=O)[C@@H](NC(=O)CNC(=O)[C@H](CCC(N)=O)NC(=O)C(C)(C)NC(=O)[C@@H](N)Cc1c[nH]cn1)[C@@H](C)O)[C@@H](C)O)C(=O)N[C@@H](CCC(=O)O)C(=O)N[C@@H](CCC(=O)O)C(=O)N[C@@H](CCC(=O)O)C(=O)N[C@@H](C)C(=O)N[C@H](C(=O)N[C@@H](CCCNC(=N)N)C(=O)N[C@@H](CC(C)C)C(=O)N[C@@H](Cc1ccccc1)C(=O)N[C@H](C(=O)N[C@@H](CCC(=O)O)C(=O)N[C@@H](Cc1c[nH]c2ccccc12)C(=O)N[C@@H](CC(C)C)C(=O)N[C@@H](CCCCN)C(=O)N[C@@H](C)C(=O)NCC(=O)NCC(=O)N1CCC[C@H]1C(=O)N[C@@H](CO)C(=O)N[C@@H](CO)C(=O)NCC(=O)N[C@@H](C)C(=O)N1CCC[C@H]1C(=O)N1CCC[C@H]1C(=O)N1CCC[C@H]1C(=O)N[C@@H](CO)C(N)=O)[C@@H](C)CC)C(C)C)C(=O)O)C(=O)O` [compound 24], the EC50 in data set [4] stood at 0.0045 nM.
On to `CCCCCCCCCCCCCCCCCC(=O)N[C@@H](CCC(=O)NCCCC[C@H](NC(=O)[C@H](CCC(N)=O)NC(=O)[C@H](CCCCN)NC(=O)[C@H](CO)NC(=O)[C@H](CC(C)C)NC(=O)[C@H](CC(=O)O)NC(=O)[C@H](CO)NC(=O)[C@@H](NC(=O)[C@H](Cc1ccccc1)NC(=O)[C@@H](NC(=O)CNC(=O)[C@H](Cc1c[nH]cn1)NC(=O)C(C)(C)NC(=O)[C@@H](N)Cc1c[nH]cn1)[C@@H](C)O)[C@@H](C)O)C(=O)N[C@@H](CCC(=O)O)C(=O)N[C@@H](CCC(=O)O)C(=O)N[C@@H](CCC(=O)O)C(=O)N[C@@H](C)C(=O)N[C@H](C(=O)N[C@@H](CCCNC(=N)N)C(=O)N[C@@H](CC(C)C)C(=O)N[C@@H](Cc1ccccc1)C(=O)N[C@H](C(=O)N[C@@H](CCC(=O)O)C(=O)N[C@@H](Cc1c[nH]c2ccccc12)C(=O)N[C@@H](CC(C)C)C(=O)N[C@@H](CCCCN)C(=O)N[C@@H](C)C(=O)NCC(=O)NCC(=O)N1CCC[C@H]1C(=O)N[C@@H](CO)C(=O)N[C@@H](CO)C(=O)NCC(=O)N[C@@H](C)C(=O)N1CCC[C@H]1C(=O)N1CCC[C@H]1C(=O)N1CCC[C@H]1C(=O)N[C@@H](CO)C(N)=O)[C@@H](C)CC)C(C)C)C(=O)O` [compound 7], for which the EC50 in data set [3] is 0.0058 nM; in data set [4], 0.0065 nM; in data set [5] it was 0.0256 nM.
Take `CCCCCCCCCCCCCCCCCC(=O)N[C@@H](CCC(=O)NCCCC[C@H](NC(=O)[C@H](CCC(N)=O)NC(=O)[C@H](CCCCN)NC(=O)[C@H](CO)NC(=O)[C@H](CC(C)C)NC(=O)[C@H](CC(=O)O)NC(=O)[C@H](CO)NC(=O)[C@@H](NC(=O)[C@H](Cc1ccccc1)NC(=O)[C@@H](NC(=O)CNC(=O)[C@H](Cc1c[nH]cn1)NC(=O)[C@@H](CO)NC(=O)[C@@H](N)Cc1c[nH]cn1)[C@@H](C)O)[C@@H](C)O)C(=O)N[C@@H](CCC(=O)O)C(=O)N[C@@H](CCC(=O)O)C(=O)N[C@@H](CCC(=O)O)C(=O)N[C@@H](C)C(=O)N[C@H](C(=O)N[C@@H](CCCNC(=N)N)C(=O)N[C@@H](CC(C)C)C(=O)N[C@@H](Cc1ccccc1)C(=O)N[C@H](C(=O)N[C@@H](CCC(=O)O)C(=O)N[C@@H](Cc1c[nH]c2ccccc12)C(=O)N[C@@H](CC(C)C)C(=O)N[C@@H](CCCCN)C(=O)N[C@@H](C)C(=O)NCC(=O)NCC(=O)N1CCC[C@H]1C(=O)N[C@@H](CO)C(=O)N[C@@H](CO)C(=O)NCC(=O)N[C@@H](C)C(=O)N1CCC[C@H]1C(=O)N1CCC[C@H]1C(=O)N1CCC[C@H]1C(=O)N[C@@H](CO)C(N)=O)[C@@H](C)CC)C(C)C)C(=O)O` [compound 9]: the solubility at 2 h in data set [2] (pH 4.5) and in data set [2] (pH 7.4) was above 5000 µg/mL in each case.
Turning to `CCCCCCCCCCCCCCCC(=O)N[C@@H](CCC(=O)N[C@@H](CCC(=O)NCCCC[C@H](NC(=O)[C@H](CCC(N)=O)NC(=O)[C@H](CCCCN)NC(=O)[C@H](CO)NC(=O)[C@H](CC(C)C)NC(=O)[C@H](CC(=O)O)NC(=O)[C@H](CO)NC(=O)[C@@H](NC(=O)[C@H](Cc1ccccc1)NC(=O)[C@@H](NC(=O)CNC(=O)[C@H](Cc1c[nH]cn1)NC(=O)[C@@H](CO)NC(=O)[C@@H](N)Cc1c[nH]cn1)[C@@H](C)O)[C@@H](C)O)C(=O)N[C@@H](CCC(=O)O)C(=O)N[C@@H](CCC(=O)O)C(=O)N[C@@H](CCC(=O)O)C(=O)N[C@@H](C)C(=O)N[C@H](C(=O)N[C@@H](CCCNC(=N)N)C(=O)N[C@@H](CC(C)C)C(=O)N[C@@H](Cc1ccccc1)C(=O)N[C@H](C(=O)N[C@@H](CCC(=O)O)C(=O)N[C@@H](Cc1c[nH]c2ccccc12)C(=O)N[C@@H](CC(C)C)C(=O)N[C@@H](CCCCN)C(=O)N[C@@H](C)C(=O)NCC(=O)NCC(=O)N1CCC[C@H]1C(=O)N[C@@H](CO)C(=O)N[C@@H](CO)C(=O)NCC(=O)N[C@@H](C)C(=O)N1CCC[C@H]1C(=O)N1CCC[C@H]1C(=O)N1CCC[C@H]1C(=O)N[C@@H](CO)C(N)=O)[C@@H](C)CC)C(C)C)C(=O)O)C(=O)O` [compound 13], the EC50 in data set [3] came out at 0.0225 nM; in data set [5], 0.079 nM.

Source of the values: patent US9771406B2, “Peptidic dual GLP-1/glucagon receptor agonists derived from exendin-4” (priority 2014, dated 2017).
